Laboratory results published in US20250248402A1, “HERBICIDAL COMPOSITIONS AND METHODS FOR CONTROLLING WEEDS” (UPL Mauritius Limited, priority 2024, published 2025).

Tested on: common waterhemp, Sensitive "WUS" Population
Assay: Greenhouse dose-response, effective dose on atrazine-sensitive waterhemp
Type: in vivo, Amaranthus tuberculatus
Conditions: 13 days after treatment, visual scale 0-100

CCNc1nc(Cl)nc(NC(C)C)n1 [Atrazine (480 g/L FL), Atrazine]
ED 20 Estimate: 11.127 g ai/ha
ED 80 Estimate: 39.353 g ai/ha
